The values that follow are results of earlier work, collected in US10434213B2, “Controlled delivery system” (Wake Forest University Health Sciences, priority 2010, dated 2019).

In brackets after ≈: the same amount, converted by molar mass.

The test system of one data set is bone marrow. The settings on record: White and Olden 1991.
Data set [1] concerns IL-1, IL-2, TNF, GM-CSF and interferons. The settings on record: Newton 1989; Olden 1991.
Another data set deals with tumor cells. The settings on record: in vitro.
Data set [2] concerns colon cancer and melanoma cancers. The settings on record: combined with interferon, in vivo.
A further data set has as its system S. aureus 29213. The settings on record: reported value.

Take `O[C@H]1[C@H]2[C@H](O)CCCN2C[C@H]1O` [Swainsonine]: the Bone marrow proliferation entry in the data set on bone marrow is recorded as “capacity to stimulate bone marrow proliferation”. Also, the “Production of multiple cytokines” value in data set [1] is recorded as “stimulates”. The “B- and T-cell immunity, natural killer T-cell and macrophage-induced destruction of tumor cells” value in the data set on tumor cells is reported as “induces”. Further, in data set [2], the Anti-tumor activity result is given as “direct anti-tumor activity”.

In the case of `O=C(O)c1cn(C2CC2)c2cc(N3CCNCC3)c(F)cc2c1=O` [ciprofloxacin], in the data set with S. aureus 29213, the “Minimum inhibitory concentration (MIC)” value was 0.25 µg/mL (≈ 0.754 µM).
